Experimental data published in patent publication US20030100769A1, “Cyclic amidine compounds” (priority 2000, published 2003).

Experiments:
[1] = molecular target: T1, α4β2 subtype of nicotinic acetylcholine receptors (Rattus norvegicus, UniProt P09483+P12390); assay: Binding assay at α4β2 subtype of nicotinic acetylcholine receptors ([3H]-cytisine, rat brain membrane)
T1 construct: examined using rat brain membrane obtained from whole homogenized brain; from tissue; host or cells: rat whole brain membranes (Fischer-344 male rats)
From the text: (§1) The methods for evaluating the binding capabilities of the compounds at nicotinic acetylcholine receptors are different by subtypes of receptors. The binding capabilities of the compounds at α4β2 nicotinic acetylcholine receptors are examined using rat brain membrane obtained from whole homogenized brain, and determining the inhibiting rate of the compounds against [^3H]-cytisine binding to said brain membrane. Furthermore, the binding capabilities of the compounds at α1β1γδ nicotinic acetylcholine receptors are examined using homogenized rat muscle, and determining the inhibiting rate of the compounds against [^3H]-α-bungarotoxin binding to said muscle homogenate.
Binding Assays at α4β2 Subtype of Nicotinic Acetylcholine Receptors
(1) Preparation of Rat Brain Membrane Containing α4β2 Subtype of Nicotinic Acetylcholine Receptors
Rats were housed in the breeding cage controlled of the room temperature at 23±1° C., and the humidity of 55±5% for 1 to 4 weeks. Rats (3 to 4 rats per a cage) were housed with lights on for 12 hours daily (from 7:00 to 19:00), and allowed free access to food and water.
Preparation of rat brain membrane containing α4β2 subtype of nicotinic acetylcholine receptors was performed as follow. That is, rat brains were isolated just after sacrificed by decapitation, washed with ice-cooled saline solution and then frozen at −80° C. with liquid nitrogen and stored till using. After thawing the frozen brain, the brain was homogenized in 10 volumes of ice-cooled buffer solution (50 mM of Tris-HCl, 120 mM of NaCl, 5 mM of KCl, 1 mM of MgCl2, 2 mM of CaCl2; pH 7.4; 4° C.) using homogenizer (HG30, Hitachi Kohki Ltd.) for 30 seconds, and the homogenate were centrifuged under 1,000×G for 10 minutes at 4° C. The resulting supernatant was separated and the pellet was homogenized again with half volume of aforementioned prior buffer solution and centrifuged under the same conditions. Combined supernatant was further centrifuged under 40,000×G for 20 minutes at 4° C. The pellet was suspended in buffer solution and used for binding assays at receptors.
(2) Experiments of α4β2 Subtype of Nicotinic Acetylcholine Receptors Binding
Suspensions of membrane pellets containing 400-600 μg of protein were added to test tubes containing test compounds and [^3H]-cytisine (2 nM) in a final volume of 200 μl and incubated for 75 minutes in ice-cooled bath. The samples were isolated by vacuum filtration onto Whatman GF/B filters, which were prerinsed with 0.5% polyethylenimine just prior to sample filtration, using Brandel multi manifold cell harvester. The filters were rapidly washed with buffer solution (3×1 ml). The filters were counted in 3 ml of clearsol I (Nacalai Tesque Inc.).
The analyses of the experimental results were conducted by using the Accufit Competition Program (Beckman Ltd.).

[2] = molecular target: α1β1γδ subtype of nicotinic acetylcholine receptors (Rattus norvegicus, UniProt P18916+P25108+P25109+P25110); assay: biochemical; type: binding
From the text: as §1
Binding Assays at α1β1γδ Subtype of Nicotinic Acetylcholine Receptors
The affinity of the compounds of the present invention to α1β1γδ subtype of nicotinic acetylcholine receptors was measured by the following method, which was modified method described by Garcha H. S., Thomas P., Spivak C.
(1) Preparation of Rat Skeletal Muscles Containing α1β1γδ Subtype of Nicotinic Acetylcholine Receptors
The substantially same animals described in the Biological Experiment 1 were used.
The isolation of α1β1γδ subtype of nicotinic acetylcholine receptors was performed as follow. That is, rat posterior skeletal muscles were isolated just after sacrificed by decapitation, washed with ice-cooled saline solution and then frozen at −80° C. with liquid nitrogen and stored till using. After thawing the frozen muscles, tissue was homogenized ([…]) with buffer solution [2.5 mM of sodium phosphate buffer (pH:7.2), 90 mM of NaCl, 2 mM of KCl, 1 mM of EDTA, 2 mM of benzamidine, 0.1 mM of benzethonium chloride, 0.1 mM of PMSF, 0.01% of sodium azide] in Waring blender (Waring blender 34BL97; WARING PRODUCTS DIVISION DYNAMICS CORPORATION OF AMERICA) for 60 seconds. The homogenate were centrifuged under 20,000×G for 60 minutes at 4° C. The supernatant was separated and the resulting pellet was added to the same buffer (1.5 ml/g wet weight), and homogenized under the same conditions. Triton X100 (2% w/v) was added and the mixture was stirred for 3 hours at 4° C. The centrifugation at 100,000×G for 60 minutes at 4° C. yielded the rat muscle extract as supernatant. This was stored at 4° C. for up to 4 weeks, and used for binding assays at receptors.
(2) Experiments of α1β1γδ Subtype of Nicotinic Acetylcholine Receptors Binding
Receptors binding experiments were performed as follow. That is, the extract of rat muscle containing 600-900 μg of protein was added to test tubes containing test compounds and incubated for 15 minutes at 37° C. Then, to this mixture was added 1 nM of [^3H]-α-bungarotoxin (α-Bgt) and further incubated for 2 hours. The samples were isolated by vacuum filtration onto Whatman GF/B filters, which were prerinsed with 0.5% polyethylenimine just prior to sample filtration, using Brandel multi manifold cell harvester. The filters were rapidly rinsed with washing solution (10 mM of KH2PO4, 150 mM of NaCl, pH 7.2, room temperature) (5×1 ml). The filters were counted in 3 ml of clearsol I (Nacalai Tesque Inc.). The determination of nonspecific binding was incubated in the presence of 1 μM α-Bgt. […] In the receptor binding experiments, said buffer solution was added for adjusting the final concentration of BSA to be 0.05%.
The analyses of the experimental results were conducted by the same way as described in the Biological Experiment 1.

[3] = molecular target: T2, human α4β2 subtype of nicotinic acetylcholine receptors (Homo sapiens, UniProt P17787+P43681); assay: Agonist activities at human α4β2 subtype of nicotinic acetylcholine receptors expressed in Xenopus oocytes (membrane potential holding method); type: cell-based; conditions: 100 μM test compound, relative to 10 μM acetylcholine (100%)
T2 construct: expressed in transfected cells; host or cells: Xenopus laevis oocytes injected with hnACh-R α4 and β2 cRNA (pSP64 polyA)
Protocol: The agonist effect in human α4β2 subtype of nicotinic acetylcholine receptors are examined by using human nicotinic acetylcholine receptors prepared in oocytes of Xenopus laevis, which is injected with cRNA from the corresponding cloning cDNA of human α4 and β2 subunits of nicotinic acetylcholine receptors, and to measure the expression of the electric response by adding the test compounds to perfusion solution by means of membrane potential holding method.
Agonist Activities at Human α4β2 Subtype of Nicotinic Acetylcholine Receptors
(1) Preparation of cRNA of Human α4β2 Subtype of Nicotinic Acetylcholine Receptors
The obtained hnACh-R α4 cDNA and hnACh-R β2 cDNA were inserted to the cRNA expression vector (pSP64 polyA) having SP6 RNA promoter to construct hnACh-R α4/pSP64 polyA and hnACh-R β2/pSP64 polyA, respectively. After cutting from expression vector by restriction enzyme (EcoRI), transcription was performed by affecting SP6 RNA polymerase in the presence of cap analogues to obtain hnACh-R α4 cRNA and hnACh-R β2 cRNA, respectively.
(2) Expression of Human α4β2 Subtype Nicotinic Acetylcholine Receptors in Xenopus Oocytes
Oocytes were purchased from Kitanihonseibutsukyohzai Co., Ltd., which were already enucleated from Xenopus laevis, and used in this experiment.
The oocytes were treated with collagenase (Sigma type I; 1 mg/ml) in calcium-free modified Birth's solution (88 mM of NaCl, 1 mM of KCl, 2.4 mM of NaHCO3, 0.82 mM of MgSO4, 15 mM of HEPES, pH 7.6) under gently stirring at room temperature for 90 minutes, and washed out the enzyme from the tissue. Then, oocytes were separated from ovarian follicle by tweezers, and isolated oocytes were placed in antibiotics containing modified Birth's solution (88 mM of NaCl, 1 mM of KCl, 2.4 mM of NaHCO3, 0.82 mM of MgSO4, 15 mM of HEPES, pH 7.6, and 0.1 v/v % of mixture solution containing of penicillin and streptomycin for incubation; Sigma Co.). […] In oocytes, heterogeneous quintuple [(α4)2(β2)3] was composed by translation of injected cRNAs, and ion channel receptors were constructed on cell membrane.
(3) Agonist Activities at Human α4β2 Subtype of Nicotinic Acetylcholine Receptors
The recordings of responses at human α4β2 subtype of nicotinic acetylcholine receptors by means of membrane potential holding method were performed as follow. […] Test compounds were added to the perfusion solution, and recorded the peak strength of induced inward current. In order to normalize the responses of test compounds, the responses with acetylcholine (Ach) were recorded before and after application of the test compounds. Generally in the oocytes just after isolated, the response of intrinsic muscarinic acetylcholine receptors, which is inward current caused by activation of calcium dependence chloride ion channels with increase of the intracellular calcium concentration by stimulation of receptors, is observed. […] Therefore, the responses observed in oocytes with injection of hnACh-R α4 cRNA and hnACh-R β2 cRNA, i.e., the inward current induced by the intracellular influx of sodium ion according to the stimulation of receptors, would be the freshly observed responses of human α4β2 subtype nicotinic acetylcholine receptors.

T2 sequence (P43681 29-627 limits assumed): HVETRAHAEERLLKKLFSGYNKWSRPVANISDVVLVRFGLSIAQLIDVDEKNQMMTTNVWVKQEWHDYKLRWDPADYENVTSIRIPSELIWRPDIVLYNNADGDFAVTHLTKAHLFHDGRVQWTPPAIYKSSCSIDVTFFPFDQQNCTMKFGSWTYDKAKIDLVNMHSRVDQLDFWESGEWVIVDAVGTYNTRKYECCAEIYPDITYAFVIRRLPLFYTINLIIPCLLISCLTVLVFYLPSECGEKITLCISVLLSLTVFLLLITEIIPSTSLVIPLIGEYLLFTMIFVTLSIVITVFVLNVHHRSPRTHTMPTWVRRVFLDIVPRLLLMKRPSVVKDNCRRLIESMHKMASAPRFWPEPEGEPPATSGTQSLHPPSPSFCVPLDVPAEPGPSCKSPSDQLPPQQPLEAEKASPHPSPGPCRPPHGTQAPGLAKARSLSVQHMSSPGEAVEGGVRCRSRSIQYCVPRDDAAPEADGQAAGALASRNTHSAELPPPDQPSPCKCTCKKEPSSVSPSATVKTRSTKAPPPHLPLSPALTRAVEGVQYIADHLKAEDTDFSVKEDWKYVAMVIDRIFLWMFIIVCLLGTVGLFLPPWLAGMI
T2 sequence (P17787 26-502): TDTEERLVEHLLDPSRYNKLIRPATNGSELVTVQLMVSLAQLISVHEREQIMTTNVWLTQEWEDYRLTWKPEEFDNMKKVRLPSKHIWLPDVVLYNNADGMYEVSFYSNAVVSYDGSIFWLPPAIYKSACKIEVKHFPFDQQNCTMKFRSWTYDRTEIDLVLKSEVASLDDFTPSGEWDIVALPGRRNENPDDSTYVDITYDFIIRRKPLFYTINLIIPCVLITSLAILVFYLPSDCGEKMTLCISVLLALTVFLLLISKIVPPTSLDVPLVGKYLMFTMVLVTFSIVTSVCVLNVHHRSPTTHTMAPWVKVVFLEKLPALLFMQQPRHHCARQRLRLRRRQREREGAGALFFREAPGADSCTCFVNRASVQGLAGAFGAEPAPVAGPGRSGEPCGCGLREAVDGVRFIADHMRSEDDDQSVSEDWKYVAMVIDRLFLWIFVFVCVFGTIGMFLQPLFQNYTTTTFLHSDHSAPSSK
T1 sequence (P09483 31-630): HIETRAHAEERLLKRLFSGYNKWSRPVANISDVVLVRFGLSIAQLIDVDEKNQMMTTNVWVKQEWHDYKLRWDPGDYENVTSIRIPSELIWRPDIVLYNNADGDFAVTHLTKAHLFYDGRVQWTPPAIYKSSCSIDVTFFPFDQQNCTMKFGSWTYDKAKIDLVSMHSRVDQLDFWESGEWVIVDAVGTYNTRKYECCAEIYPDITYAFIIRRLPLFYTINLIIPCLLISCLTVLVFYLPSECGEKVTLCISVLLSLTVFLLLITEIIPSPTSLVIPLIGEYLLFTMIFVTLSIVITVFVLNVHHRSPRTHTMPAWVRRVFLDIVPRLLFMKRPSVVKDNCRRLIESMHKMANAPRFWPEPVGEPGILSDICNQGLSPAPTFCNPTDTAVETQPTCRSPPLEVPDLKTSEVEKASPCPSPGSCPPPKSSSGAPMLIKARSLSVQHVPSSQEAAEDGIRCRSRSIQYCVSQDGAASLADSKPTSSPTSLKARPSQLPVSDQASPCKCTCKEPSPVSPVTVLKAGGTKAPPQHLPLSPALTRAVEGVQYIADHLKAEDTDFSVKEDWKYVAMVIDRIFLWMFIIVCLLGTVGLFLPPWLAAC
T1 sequence (P12390 25-500): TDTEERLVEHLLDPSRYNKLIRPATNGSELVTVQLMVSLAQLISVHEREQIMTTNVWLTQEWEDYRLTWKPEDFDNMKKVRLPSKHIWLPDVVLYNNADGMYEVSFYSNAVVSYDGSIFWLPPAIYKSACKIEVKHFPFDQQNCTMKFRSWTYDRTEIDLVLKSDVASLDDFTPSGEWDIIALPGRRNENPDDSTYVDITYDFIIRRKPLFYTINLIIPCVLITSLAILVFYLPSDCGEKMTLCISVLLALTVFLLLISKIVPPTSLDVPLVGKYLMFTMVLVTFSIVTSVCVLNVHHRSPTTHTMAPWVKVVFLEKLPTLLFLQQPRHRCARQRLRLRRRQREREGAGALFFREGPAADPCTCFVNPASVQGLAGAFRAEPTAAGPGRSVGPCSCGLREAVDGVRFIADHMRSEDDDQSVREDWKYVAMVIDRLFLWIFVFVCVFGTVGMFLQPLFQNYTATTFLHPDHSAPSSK
Chain of α1β1γδ subtype of nicotinic acetylcholine receptors (P25109 24-501): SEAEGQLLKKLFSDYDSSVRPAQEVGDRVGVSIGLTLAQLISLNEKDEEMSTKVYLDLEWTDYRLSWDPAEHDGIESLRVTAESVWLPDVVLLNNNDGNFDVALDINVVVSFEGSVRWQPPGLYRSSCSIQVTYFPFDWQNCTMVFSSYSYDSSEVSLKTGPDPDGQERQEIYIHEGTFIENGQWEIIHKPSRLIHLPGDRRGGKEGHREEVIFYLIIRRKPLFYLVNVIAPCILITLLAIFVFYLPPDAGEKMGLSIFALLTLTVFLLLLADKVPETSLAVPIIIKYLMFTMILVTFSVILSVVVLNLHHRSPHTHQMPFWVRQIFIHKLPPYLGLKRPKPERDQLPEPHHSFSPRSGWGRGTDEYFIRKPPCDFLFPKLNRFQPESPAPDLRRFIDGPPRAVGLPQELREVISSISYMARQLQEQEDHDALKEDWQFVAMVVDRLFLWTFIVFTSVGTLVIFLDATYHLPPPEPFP
Chain of α1β1γδ subtype of nicotinic acetylcholine receptors (P25110 22-517): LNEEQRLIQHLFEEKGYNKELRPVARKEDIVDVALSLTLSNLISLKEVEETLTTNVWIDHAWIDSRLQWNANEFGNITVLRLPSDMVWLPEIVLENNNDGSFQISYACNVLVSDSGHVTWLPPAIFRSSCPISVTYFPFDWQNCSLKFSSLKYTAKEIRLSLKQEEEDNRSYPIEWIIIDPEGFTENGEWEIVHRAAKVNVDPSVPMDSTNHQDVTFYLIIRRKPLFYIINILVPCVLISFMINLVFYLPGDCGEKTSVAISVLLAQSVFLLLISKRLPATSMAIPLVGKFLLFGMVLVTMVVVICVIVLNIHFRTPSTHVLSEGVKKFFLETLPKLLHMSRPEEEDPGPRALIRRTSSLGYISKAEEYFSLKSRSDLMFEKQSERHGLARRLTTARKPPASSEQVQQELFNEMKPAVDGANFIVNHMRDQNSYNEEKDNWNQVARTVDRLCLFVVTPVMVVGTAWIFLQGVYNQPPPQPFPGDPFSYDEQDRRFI
Chain of α1β1γδ subtype of nicotinic acetylcholine receptors (P25108 21-457): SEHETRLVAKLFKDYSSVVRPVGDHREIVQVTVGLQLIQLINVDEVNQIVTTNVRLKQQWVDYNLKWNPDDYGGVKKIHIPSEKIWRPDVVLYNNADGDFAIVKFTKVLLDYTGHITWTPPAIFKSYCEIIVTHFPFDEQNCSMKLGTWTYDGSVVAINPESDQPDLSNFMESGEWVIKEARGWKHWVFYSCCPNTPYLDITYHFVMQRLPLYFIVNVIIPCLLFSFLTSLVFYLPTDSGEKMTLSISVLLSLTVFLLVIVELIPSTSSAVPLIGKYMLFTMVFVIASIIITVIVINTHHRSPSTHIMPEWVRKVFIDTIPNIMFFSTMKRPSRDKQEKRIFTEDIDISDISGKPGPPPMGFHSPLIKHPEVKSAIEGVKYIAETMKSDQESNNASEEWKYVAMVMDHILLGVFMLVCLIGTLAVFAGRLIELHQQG

Row | Structure (SMILES) | Ki [1] [µM] | Ki [2] [µM] | Agonist activity: control % by response at 100 μM of the test compound [3]
1 | CC1=NCCN1CCc1ccc(Cl)nc1 [Compound 62, 1-[2-(6-chloro-3-pyridyl)ethyl]-2-methyl-2-imidazoline] | 0.07 | 639 | (9.6%)
2 | C1=NCCCN1Cc1cccnc1 [Compound 58, 1-(3-pyridyl)methyl-1,4,5,6-tetrahydropyrimidine] | 0.0069 | 32 | (27.9%)
3 | Clc1ccc(CN2C=NCCC2)cn1 [Compound 27, 1-(6-chloro-3-pyridyl)methyl-1,4,5,6-tetrahydropyrimidine] | 0.002 | 45 | (18.0%)
4 | Cc1ccc(CN2C=NCCC2)cn1 [Compound 57, 1-(6-methyl-3-pyridyl)methyl-1,4,5,6-tetrahydropyrimidine] | 0.012 | 86 | (9.1%)
5 | Cc1ccc(CC2=NCCN2)cn1 [Compound 45, 2-(6-methyl-3-pyridyl)methyl-2-imidazoline] | – | – | (12.0%)
